{
  "source": "patent US8802240B2",
  "about": "“Uses of formulations of thyroid hormone analogs and nanoparticulate forms thereof to increase chemosensitivity and radiosensitivity in tumor or cancer cells” (Nanopharmaceuticals LLC, priority 2011, dated 2014)",
  "key": {"[1]": {"tested_on": "SKN-SH, SaOS2 and MCF7 cells, drug-sensitive and -resistant", "test": "MTT cell viability of drug-sensitive and drug-resistant cancer cells", "assay_type": "cell-based", "details": "4 days", "description": "Drug-sensitive and -resistant SKN-SH (FIGS. 13C-D), SaOS2 (FIGS. 13A-B), and MCF7 (FIGS. 13E-F) cells were subjected to treatment with increasing concentrations of Tetrac or Doxirubicin over a period of 4 days. Cell viability was then measured by MTT assay. The data represent the average of 4 determinations±SE.\nDoxorubicin resistant SKN-SH/R, MCF7/R and SaOS2/R cells were subjected to treatment with Tetrac either alone or in combination with each of doxorubicin (Dox), etoposide (Etop), cisplatin (Cisp), or trichostatin A (TSA) at the indicated concentrations, After 4 days in cell viability was determined by the MTT assay and the data represented as average of 3 determinations±SE."}, "[2]": {"tested_on": "human medullary carcinoma of the thyroid (MTC) xenograft", "test": "MTC xenograft in nude mice", "details": "mouse, in vivo", "description": "Water and food were provided ad libitum."}, "[3]": {"tested_on": "human MTC cells", "test": "RNA microarray of h-MTC cells", "assay_type": "cell-based", "procedure": "Technical aspects of microarray studies, stringent quality control of microarray studies and statistic analysis of gene expression were as described previously. […] In brief, the array hybridization and processing, data retrieval and the analysis were carried out with standard sets of Affymetrix (Santa Clara, Calif.) equipment, software and protocols in an Affymetrix microarray core facility. RNA was extracted from cell cultures of two independent biological replicates of each experimental condition and analyzed for sample purity and integrity, using BioAnalyzer instrumentation (Agilent, Santa Clara, Calif.). Expression analysis of 54,675 transcripts was conducted for each sample, using Affymetrix HG-U133A Plus 2.0 arrays. Data retrieval and analysis was completed by MAS5.0 software. Concordant changes of gene expression for each experimental condition were determined at the statistical threshold P value, <0.01 (two-tailed t test)."}, "[4]": {"tested_on": "GL261 murine brain tumor cells", "test": "GL261 growth curve, colony forming efficiency and cell size", "assay_type": "cell-based", "description": "1×10^5 cells per 25 cm^2 flask at time zero (density 40 cells/mm^2). Three flasks were utilized at each time period. The medium in the flasks was not changed over the duration of the growth curve (unfed cultures). Data were taken daily from day zero to day 11.5 post-seeding and cell numbers, age distributions, and apoptotic percentages were determined. After growth curve shapes (without and with 2 μM Tetrac) were determined, irradiation times at 70 and 270 hour post-seeding were chosen.\nTo obtain exponential and plateau phase cell numbers, we trypsinized ([…] trypsin-EDTA) cells for 5 min at 37° C.\nFor determination of CCDTs, the cell numbers per flask were determined on a daily basis. A four-day interval in the exponential region of growth to obtain the CCDTs, yielding a total of 12 estimations for analysis was utilized. A regression analysis was performed using the (log) of the cell number versus the linear time in days (SigmaPlot, V. 10, Systat Software, Inc., Point Richmond, Calif.). The log slope value and its standard error (SE) were determined, and the SE was converted to the 95% confidence limits using a two-tailed t-table at N−1 degrees of freedom where N is the number of samples. (See Goldstein, A. In: Biostatistics, New York, The MacMillan Co., 1964, p. 140-146)."}, "[5]": {"tested_on": "GL261 cells", "test": "GL261 sublethal damage repair (SLDR), split dose", "assay_type": "cell-based, murine", "description": "SLDR was measured at 10% immediate survival level as determined from the acute single dose curve for both control and Tetrac-treated cells in both growth states (i.e. exponentially growing and plateau phase cells. Flasks were irradiated with one-half of the total dose and returned to the 37° C. incubator. At increasing periods of time, flasks were removed, and given the second half of the immediate 10% survival dose. Survival was measured at 0, 0.5, 1.0, 1.5, 2.0, 3.0, 4.0, 6.0, 8.0, and 10.0 hours after the initial dose.\nTo investigate the effects of Tetrac on SLDR and PLDR, cells were chosen that had been given a one-hour treatment with Tetrac at two different times, i.e., at 70 and 270 hours post-seeding)."}, "[6]": {"tested_on": "U87MG human glioblastoma cells", "test": "U87MG clonogenic survival after 250 kVp single dose x-irradiation", "assay_type": "cell-based", "description": "To irradiate culture flasks, a Philips 250 kVp x-ray machine (Philips Corp., Fall River, Mass.) operated at 250 kVp and 15 mA with added filtration of a 0.4 mm Thoreaus filter was used. The target to source distance was 30 cm. Dose rates were measured using an R-meter (Victoreen Co., Cleveland, Ohio), and converted to absorbed (Gy) doses using appropriate temperature, pressure, and R to Gy conversion factors. The dose rate was approximately 1 Gy/min. Flasks were irradiated after being taken from a 37° C. environment and moved to the x-ray source. Movement at ambient temperature took approximately 1-2 min. Cells were next placed on ice and allowed to cool for 5 min. Lastly, flasks were placed in the Philips irradiator on top of a 2 mm thickness of Lucite which was on top of a layer of crushed ice.\nThe maximum time needed for irradiation of the single dose survival curve was approximately 8 min.\nFor SHMT analysis, data lying at or below a fractional survival (F×S) value of 0.368 were fit using a linear regression analysis of the log survival data versus linear dose. From this fit the extrapolation number (n), the quasi-threshold dose (Dq, Gy) and the inverse of the inactivation slope (Do, Gy) were derived.\nFor LQ analyses, survival data lying between the fractional survivals of 1.00 and 0.05 were used. The log survival data were transformed to a linear form using the relationship (−ln F×S/D) and plotted against D. A linear regression analysis was performed to yield the LQ equation along with the 95% confidence limits on the y-intercept (alpha) and the slope (beta) using a t-table with the appropriate (N−1) degrees of freedom. (See Goldstein A. Biostatistics, Academic Press, 1995.)"}},
  "data": [
    {"smiles": "O=C(O)Cc1cc(I)c(Oc2cc(I)c(O)c(I)c2)c(I)c1", "note": "[Tetrac, tetraiodothyroacetic acid]", "values": [
      {"measurement": "anti-proliferative activity against drug-sensitive vs drug-resistant cells (in words)", "setting": "[1]; MTT", "value": "equivalent anti-proliferative activity"},
      {"measurement": "cellular responses to doxorubicin, etoposide, cisplatin and TSA when combined with Tetrac (in words)", "setting": "[1]; doxorubicin resistant SKN-SH/R, MCF7/R and SaOS2/R cells", "value": "significantly enhanced"},
      {"measurement": "mortality (in words)", "setting": "[2]", "value": "no mortality"},
      {"measurement": "expression of VEGFA (in words)", "setting": "[3]", "value": "significantly decreased"},
      {"measurement": "expression of genes associated with induction of apoptosis: CASP2, DFFA, FAF1, CASP8AP2 (in words)", "setting": "[3]", "value": "caused expression"},
      {"measurement": "expression of thrombospondin (THBS1) gene (in words)", "setting": "[3]", "value": "increase"},
      {"measurement": "CFE (%)", "setting": "[4]; exponential cells (+Tetrac), control 30.6, with feeder cells", "value": 24.2, "unit": "%"},
      {"measurement": "size of Tetrac-treated cells relative to control (volumetric data)", "setting": "[4]; exponential phase", "value": 1.4, "unit": "times"},
      {"measurement": "size of Tetrac-treated cells relative to control (volumetric data)", "setting": "[4]; plateau phase", "value": 1.9, "unit": "times"},
      {"measurement": "repair of x-ray damage at 6 to 8 hours post-irradiation (in words)", "setting": "[5]; 2 uM, FIG. 58, control repaired by a factor of 4 to 5", "value": "showed no repair of x-ray damage"},
      {"measurement": "reduction of SLDR by a factor of", "setting": "[5]; exponential cells", "value": 1.8},
      {"measurement": "SLDR recovery ratio at 10 hours post-irradiation", "setting": "[5]; exponential cells, two 2.50 Gy split doses, control approximately 4 to 5", "value": "approximately 2.2"},
      {"measurement": "SLDR recovery ratio at 2 hours after the first dose", "setting": "[5]; exponential cells, control approximately 2.5", "value": 1.8},
      {"measurement": "survival at 3 hours after the initial dose, relative to survival at 0 hours (fixation of damage)", "setting": "[5]; plateau phase cells with Tetrac", "value": "approximately 36%"},
      {"measurement": "decrease in cellular repair (SLDR) by a factor of", "setting": "[5]; plateau phase cells, three hours post-irradiation", "value": "~3"},
      {"measurement": "increase of α (ratio of the alpha values, sensitization factor)", "setting": "[6]", "value": 3.6, "unit": "fold"},
      {"measurement": "isoeffect comparison at 10% survival, ratio", "setting": "[6]", "value": 2.2},
      {"measurement": "ratio of relative survival values at 2 Gy", "setting": "[6]", "value": 4.6},
      {"measurement": "reduction of the D0 value", "setting": "[6]", "value": 31, "unit": "%"},
      {"measurement": "β (LQ)", "setting": "[6]; Tetrac treated cells, control 0.016 (±0.002)", "value": "0.076 (±0.006)"},
      {"measurement": "n (SHMT)", "setting": "[6]; Tetrac treated cells, control 2.97 (2.41-3.21)", "value": "1.01 (0.45-2.3)"},
      {"measurement": "sensitization factor, average of 3 comparisons", "setting": "[6]; range of 2.2 to 4.6", "value": 3.5}
    ]}
  ]
}
